Measured values as given in the NIST ThermoML archive (doi:10.1016/j.jct.2012.09.009).
± gives the expanded uncertainty stated by the source.

Conditions: 101.33 kPa, Liquid; for speed of sound: Sing-around technique in a fixed-path interferometer; for mass density: vibrating tube

Cc1ccccc1 [toluene]
Conditions | speed of sound [m/s]
278.15 K | 1394.1 ± 2.2
283.15 K | 1371.5 ± 2.2
288.15 K | 1349.1 ± 2.2
293.15 K | 1326.9 ± 2.2
298.15 K | 1305.1 ± 2.1
303.15 K | 1283.6 ± 2.2
308.15 K | 1262.2 ± 2.2
313.15 K | 1240.9 ± 2.2
318.15 K | 1219.9 ± 2.2
323.15 K | 1198.9 ± 2.2
328.15 K | 1178.2 ± 2.2
333.15 K | 1157.7 ± 2.2
338.15 K | 1137.2 ± 2.1
343.15 K | 1117 ± 2.2

CC(C)CC(C)(C)C [2,2,4-trimethylpentane]
Conditions | mass density [kg/m3] | speed of sound [m/s]
278.15 K | 704.1 ± 0.45 | 1168.4 ± 2.1
283.15 K | 700.05 ± 0.45 | 1146.8 ± 2.1
288.15 K | 695.98 ± 0.44 | 1125.4 ± 2.1
293.15 K | 691.89 ± 0.44 | 1104.3 ± 2.1
298.15 K | 687.77 ± 0.43 | 1083.1 ± 2.1
303.15 K | 683.64 ± 0.43 | 1062.4 ± 2.1
308.15 K | 679.48 ± 0.42 | 1041.6 ± 2.1
313.15 K | 675.28 ± 0.42 | 1020.9 ± 2.1
318.15 K | 671.07 ± 0.41 | 1000.5 ± 2.1
323.15 K | 666.81 ± 0.41 | 980 ± 2.1
328.15 K | 662.52 ± 0.41 | 959.7 ± 2.1
333.15 K | 658.19 ± 0.4 | 939.7 ± 2.1
338.15 K | 653.81 ± 0.4 | 919.7 ± 2.1
343.15 K | 649.4 ± 0.39 | 900 ± 2.1
